Laboratory results taken from patent US12421270B2, “Oligosaccharide, preparation method therefor, composition thereof and use thereof” (YANTAI DONGCHENG BIOCHEMICALS CO., LTD, priority 2018, dated 2025).

Columns and labels:
Type in all cases: biochemical
[1] = tested on: platelet-poor plasma; experiment: APTT assay (activated partial thrombin time), anticoagulant activity test; conditions: 37° C., fibrin formation time
Description: (§1) Oligosaccharide compounds of the present application, J1 (a compound of formula J, in which Y=Na, q=1, R is azido, and ? is in β configuration), J2 (a compound of formula J, in which Y=Na, q=2, R is azido, and ? is in β configuration), J3 (a compound of formula J, in which Y=Na, q=3, R is azido, and ? is in β configuration), and J4 (a compound of formula J, in which Y=Na, q=4, R is azido, and ? is in β configuration) were assayed for anticoagulant activity, including activated partial thrombin time (APTT), prothrombin time (PT) and thrombin time (TT).
(§2) The whole experiment was carried out according to the instruction of the APTT kit. Firstly, 20 ul of platelet-poor plasma and 5 ul of the solution to be tested (control or sample solution) were mixed into a test cup and incubated in preheating zone at 37° C. for 3 min. Then 25 ul of APTT reagent was added to the mixed system, and then continued to incubate at 37° C. for 3 min. Next, the test cup was moved to the test zone, and 25 ul of calcium chloride solution preheated for 5 min was added. At the same time, recording of fibrin formation time was immediately initiated, and when the experiment was completed, the fibrin formation time was read from the coagulation analyzer.
(§3) Results of the assays are as follows (data in the table represent the concentration required to double APTT/PT/TT): […]

[2] = tested on: platelet-poor plasma; experiment: TT assay (thrombin time), anticoagulant activity test; conditions: 37° C., fibrin formation time, last column of table
Description: as §1
as §2, with “TT” for “APTT”, “Then” for “Then 25 ul of APTT reagent was added to the mixed system, and then continued to incubate at 37° C. for 3 min. Next,”, “50” for “25”, “of” for “of calcium chloride solution”, “TT reagent” for “for 5 min”, “added (preheating time is longer than 10 min, but not more than 30 min).” for “added.”
as §3

[3] = tested on: platelet-poor plasma; experiment: PT assay (prothrombin time), anticoagulant activity test; conditions: 37° C., fibrin formation time
Description: as §1
as §2, with “PT” for “APTT”, “Then” for “Then 25 ul of APTT reagent was added to the mixed system, and then continued to incubate at 37° C. for 3 min. Next,”, “50” for “25”, “of” for “of calcium chloride solution”, “PT reagent” for “for 5 min”, “added (preheating time is longer than 10 min, but not more than 30 min).” for “added.”
as §3

azido{(2,4-di-O-sulfo-α-L-fucosyl)-(1→3)-(β-D-glucopyranosyluronic acid)-(1→3)-(4,6-di-O-sulfo-2-deoxy-2-N-acetamino-β-D-galactopyranosyl)-(1→4)-[(2,4-di-O-sulfo-α-L-fucosyl)-(1→3)-(β-D-glucopyranosyluronic acid)-(1→3)-(4,6-di-O-sulfo-2-deoxy-2-N-acetamido-β-D-galactopyranosyl)]} decasodium salt [Compound J1]
APTT (concentration required to double APTT) [1]: 120.39 µg/mL
Concentration required to double TT [2]: >128 µg/mL
PT (concentration required to double PT) [3]: >128 µg/mL
